In assay [1] the test system is amidohydrolase (enzyme of this invention). The experiment in a line: Substrate specificity for N-acyl-amino acids (deacylation, standard assay). The assay is classed as biochemical, Streptomyces fulvoviridis A933. The note with it: N-chloroacetyl-L-phenylalanine as 100. The protocol:
The relative activity in Table 1 refers to N-chloroacetyl-L-phenylalanine as 100.
(§1) Ten microliters of 0.2 M piperazine-N,N'-bis(2-ethanesulfonic acid) [=PIPES] buffer, pH 7.3, and 10 μl of 100 mM N-chloroacetyl-L-phenylalanine (adjusted to pH 6-7 with NaOH) are dissolved in 20 μl of water. After 10 μl of an enzyme solution (30-50 μg/ml) is added, the mixture is incubated at 37° C. for 15 minutes. Then, 50 μl of 50% acetic acid is added to stop the enzymatic reaction. The amount of L-phenylalanine produced from the substrate in the reaction solution is determined by the Yemm-Cocking ninhydrin colorimetric method (E. W. Yemm & E. C. Cocking: Analyst, Vol. 80, page 209, 1955) or with an amino acid automatic analyzer (Model 835-50, Hitachi Limited).

In assay [2] the test system is cell-free homogenate of Streptomyces argenteolus. Kind of assay: Example 4: action of cell-free homogenate on PS-5 and OA-6129A. The following applies: tested as in Example 3. The assay is classed as biochemical. How it is done: Glycerol (4 g), 0.5 g of peptone, 0.2 g of glucose, 0.2 g of soluble starch, 0.5 g of Essan Miit®, 0.5 g of dry yeast, 0.5 g of NaCl and 0.2 g of CaCO3 were dissolved in 100 ml of tap water. Each 25 ml portion of the suspension was distributed in 250 ml Erlenmeyer flasks, and sterilized at 120° C. for 15 minutes. After cooling the culture medium, Streptomyces argenteolus was inoculated and cultivated at 28° C. for 68 hours with shaking. 20 ml of a cell extract was obtained. The same procedure of treatment as in Example 1 yielded 20 ml of a cell-free homogenate which was tested as explained in Example 3.

Assay [3] concerns amidohydrolase (enzyme of this invention). Kind of assay: Experiment B: acyl exchange of OA-6129A with acyl-CoA. The note with it: acetyl-, n-propionyl-, n-butyryl- or glutaryl-CoA; 37° C., 3 hours. The assay is classed as biochemical, Streptomyces fulvoviridis A933. How it is done:
A mixture consisting of 10 μl of 0.2 M potassium phosphate buffer, pH 7.4, 10 μl of a solution of antibiotic OA-6129A (500 μg/ml), 10 μl of acyl-CoA (5 μmoles/ml), 10 μl of the enzyme preparation from Example 1 and 10 μl of water was allowed to react at 37° C. for 3 hours. The product was assayed by high voltage paper electrophoresis (HVPE) in the same way as in Experiment A.
As controls, the same mixture minus acyl-CoA and the same mixture minus the enzyme solution were incubated under the same conditions as mentioned above.
Acetyl-CoA, n-propionyl-CoA, n-butyryl-CoA and glutaryl-CoA were used as acyl-CoA.

Assay [4] shares this test system. Kind of assay: Experiment A: action of the enzyme on PS-5 and OA-6129A, HVPE bioautography and pantothenate bioassay. The assay is classed as biochemical, Streptomyces fulvoviridis A933. How it is done: A mixture (50 μl) consisting of 10 μl of 0.2 M potassium phosphate buffer, pH 7.4, 20 μl of an antibiotic PS-5 solution (500 μg/ml) or an antibiotic OA-6129A solution (500 μg/ml), 10 μl of the enzyme solution obtained in Example 1, and 10 μl of water was incubated at 37° C. for 3 hours.
As a control, the mixture minus the enzyme solution was allowed to react under the same conditions.
3 μl of each of the resulting reaction solutions was spotted on Watmann No. 1 filter paper, and subjected to electrophoresis for 50 minutes at 1500 V/30 cm with Veronal buffer, pH 8.6. After electrophoresis, the products were bioautographed with Comamonas terrigena B-996 as assay organism.

For assay [5], the system named is cell-free homogenate of Streptomyces cattleya (acylase). The experiment in a line: Example 2: action of cell-free homogenate on PS-5 and OA-6129A. The format is biochemical, Streptomyces cattleya (NRRL 8057). How it is done:
Glucose (2.5 g), 1 g of corn steep liquor, 0.5 g of Pharmamedia® (a product of Traders Oil Mill Company), 0.5 g of yeast extract and 0.3 g of CaCO3 were dissolved in 100 ml of tap water, and the pH of the suspension was adjusted to 7.0. Then, 50 ml portions of the suspension were distributed in 250 ml Erlenmeyer flasks, and sterilized at 120° C. for 15 minutes. After cooling Streptomyces cattleya (NRRL 8057) was inoculated, and the flasks were cultivated at 28° C. for 90 hours with shaking.
Mycelia were collected by centrifugation and treated by the same procedure as in Example 1 to give 20 ml of a cell-free homogenate. With this fresh homogenate, the enzymological properties of Streptomyces cattleya acylase were examined.
A mixture containing 10 μl of 0.2 M potassium phosphate buffer, pH 7.4, 10 μl of an antibiotic PS-5 solution (500 μg/ml) or an antibiotic OA-6129A solution (500 μg/ml), 10 μl of acyl-CoA (5 μmoles/ml) and 20 μl of the cell-free homogenate was incubated at 37° C. for 4 hours. The product was analysed by HVPE in the same manner as in Experiment A.
The control reaction mixtures contained either no cell-free homogenate or no acyl-CoA. Acetyl-CoA and n-propionyl-CoA were used as acyl-CoA.

For assay [6], the system named is cell-free homogenate of Streptomyces cremeus subsp. auratilis. The experiment in a line: Example 3: action of cell-free homogenate on PS-5 and OA-6129A. The following applies: 37° C., 4 hours. The assay is classed as biochemical. The protocol: Soluble starch (5.2 g), 1.2 g of Essan-Miit, 0.16 g of NaCl, 0.08 g of K2 HPO4 and 0.04 g of MgSO4.7H2 O were dissolved in 80 ml of tap water and 40 ml portions of the suspension were filled in two 250 ml Erlenmeyer flasks. After autoclaving at 120° C. for 15 minutes, Streptomyces cremeus subsp. auratilis was inoculated, and cultivated at 28° C. for 68 hours. Using the same procedure as in Example 1, 20 ml of the cell-free homogenate was obtained. For confirmation of the enzyme activity, the following reactions were studied.
A mixture (50 μl) consisting of 10 μl of 0.2 M potassium phosphate buffer, pH 7.4, 10 μl of an antibiotic PS-5 solution (500 μg/ml) or an antibiotic OA-6129A solution (500 μg/ml), 20 μl of the cell-free homogenate and 10 μl of water was kept at 37° C. for 4 hours. The products were assayed by HVPE in the same way as in Experiment A.
As a control, the above reaction was carried out without the cell-free homogenate.

The test system of assay [7] is amidohydrolase (enzyme of this invention). The experiment in a line: Effects of metal ions, chelating agents and -SH inhibitors on enzyme activity. The assay is classed as biochemical, Streptomyces fulvoviridis A933. How it is done: as §1
The relative activity in Table 2 refers to the activity of the enzyme in the absence of such chemical as 100.

Where [8] appears, read: additive 1 mM, activity without additive as 100, 15 min.
Setting [9] is: additive 0.1 mM, activity without additive as 100, 15 min.

`CC(=O)N[C@H](CC(C)C)C(=O)O` [N--Acetyl-D-leucine] displayed a Relative activity in assay [1] of 0. Regarding `CCC1C(=O)N2C(C(=O)O)=C(SCCNC(=O)CCNC(=O)C(O)C(C)(C)CO)CC12` (centres unmarked) [OA-6129A], the “Depantothenylation by the cell-free homogenate” value in assay [2] is on record as “does depantothenylate”; in assay [5] (without acyl-CoA, 37° C., 4 hours), “catalyzes the depantothenylation”; in assay [6] it was “has the ability to eliminate the pantotheinyl group”. In addition, the “Exchange of the pantotheinyl group with the acyl group of acyl-CoA” value in assay [3] is recorded as “catalyzes the exchange of the pantotheinyl group”. Further, the “Depantothenylation of the substrate by the enzyme” value in assay [4] (37° C., 3 hours, pH 7.4) is “removes the pantotheinyl group”. For the same compound, the “Concentration of pantothenate in the reaction solution” value in assay [4] (bioassay with Saccharomyces carlsbergensis (ATCC 9080), enzyme present) was found to be 8 µg/mL. Besides, the “Acyl exchange with acyl-CoA by the cell-free homogenate” value in assay [5] (acetyl-CoA present) was “transform to PS-5”.

`CC(=O)N[C@H](C(=O)O)C(C)C` [N--Acetyl-L-valine] yielded a Relative activity in assay [1] of 32.4. In turn, `O=C(CCl)N[C@@H](Cc1ccccc1)C(=O)O` [N--Chloroacetyl-L-phenylalanine] registered a Relative activity in assay [1] of 100.

`CSCC[C@@H](NC(C)=O)C(=O)O` [N--Acetyl-D-methionine] came in with a Relative activity in assay [1] of 0. On the same count and under the same terms, with `CC(=O)N[C@@H](C(=O)O)C(C)C` [N--Acetyl-D-valine] the figure was 0. In assay [7] (setting [8]), `c1cnc2c(c1)ccc1cccnc12` [o-PT, ophenanthroline] had a Relative activity of 56.4.

With `CSCC[C@H](NC(C)=O)C(=O)O` [N--Acetyl-L-methionine], the Relative activity in assay [1] is 262.1. Still for that read-out and setting: as for `CC(=O)N[C@@H](CCC(=O)O)C(=O)O` [N--Acetyl-L-glutamic acid], the figure is 2.7. In assay [7] (setting [8]), `[Cl][Sn][Cl]` [SnCl2] gave a Relative activity of 64.4. Regarding `CC(C)[C@H](NC(=O)CCl)C(=O)O` [N--Chloroacetyl-L-valine], the Relative activity in assay [1] stood at 351.1. `[Cl][Pb][Cl]` [PbCl2] gave a Relative activity in assay [7] (setting [8]) of 58.8. In assay [1], `CC(=O)N[C@@H](CCCCN)C(=O)O` [N--α-Acetyl-L-lysine] displayed a Relative activity of 39.8. As for `[Cl-].[Cl-].[Zn+2]` [ZnCl2], in assay [7] (setting [8]), the Relative activity stood at 7.7. In turn, `O=S(=O)([O-])[O-].[Ni+2]` [NiSO4] registered a Relative activity in assay [7] (setting [8]) of 79.4. In turn, `[Cl][Cd][Cl]` [CdCl2] came in with a Relative activity in assay [7] (setting [8]) of 10.2. Compound `[Cl-].[Cl-].[Mg+2]` [MgCl2] yielded a Relative activity in assay [7] (setting [8]) of 93.6. As to `CCC1C(=O)N2C(C(=O)O)=C(SCCNC(C)=O)CC12` (centres unmarked) [PS-5], the “Deacetylation by the cell-free homogenate” value in assay [2] and in assay [6] was “no ability to deacetylate” each time. The “Deacetylation of the substrate by the enzyme” value in assay [4] (37° C., 3 hours, pH 7.4) is listed as “did not attack antibiotic PS-5 at all”. Moreover, the “Susceptibility of the substrate to the cell-free homogenate” value in assay [5] (irrespective of the presence of acyl-CoA, 37° C., 4 hours) is “not susceptible”. `CSCC[C@H](NC=O)C(=O)O` [N--Formyl-L-methionine] had a Relative activity in assay [1] of 112.7. On to `O=C(O)CN(CCN(CC(=O)O)CC(=O)O)CC(=O)O` [EDTA, ethylenediaminetetracetic acid], for which, in assay [7] (pipes buffer, pH 7.3, 15 min, 1000 µM), the Relative activity came to 95.8. With `CC(=O)N[C@@H](CC(C)C)C(=O)O` [N--Acetyl-L-leucine], the Relative activity in assay [1] amounted to 92.8. In the case of `O=C(O)c1cc[c]([Hg][Cl])cc1` [p-CMB, pchloromercuribenzoic acid], the Relative activity in assay [7] (setting [8]) was determined as 0. Regarding `CC(=O)N[C@H](Cc1ccccc1)C(=O)O` [N--Acetyl-D-phenylalanine], the Relative activity in assay [1] is listed as 0.

On to `[Co+2]` [Co^++], for which the “Effect of the ion on the enzyme (in words)” value in assay [7] (known acylases are activated or stabilized by 0.5 to 10 mM) is “inhibited”. In assay [1], `CC(=O)N[C@@H](C)C(=O)O` [N--Acetyl-L-alanine] gave a Relative activity of 163.8. `CC(C)C[C@H](NC=O)C(=O)O` [N--Formyl-L-leucine]: in assay [1], the Relative activity was determined as 16.4. On to `[Cl][Mn][Cl]` [MnCl2], for which the Relative activity in assay [7] (setting [8]) turned out to be 74.3. In assay [1], `CC(C)C[C@H](NC(=O)CCl)C(=O)O` [N--Chloroacetyl-L-leucine] returned a Relative activity of 348.5. As to `CC(=O)N[C@H](C)C(=O)O` [N--Acetyl-D-alanine], the Relative activity in assay [1] came to 0. Take `[Cl][Hg][Cl]` [HgCl2]: the Relative activity in assay [7] (additive 0.01 mM, activity without additive as 100, 15 min) was 84.5; in assay [7] (setting [9]), 6.4; in assay [7] (setting [8]), 0. For `[Cl][Cu][Cl]` [CuCl2], the values for the Relative activity in assay [7] (setting [9]) and in assay [7] (setting [8]) were 87.5 and 0, respectively.

`CC(=O)NCC(=O)O` [N--Acetyl-glycine] displayed a Relative activity in assay [1] of 23.9. With `[Cl-].[Cl-].[Co+2]` [CoCl2], the Relative activity was 92.3 in assay [7] (additive 0.2 mM, activity without additive as 100, 15 min); 82.4 in assay [7] (setting [8]); 3.8 in assay [7] (additive 2 mM, activity without additive as 100, 15 min); 0 in assay [7] (additive 4 mM, activity without additive as 100, 15 min). Turning to `CC(=O)N[C@@H](Cc1ccccc1)C(=O)O` [N--Acetyl-L-phenylalanine], in assay [1], the Relative activity turned out to be 15.3. In assay [7] (setting [8]), `O=S(=O)([O-])[O-].[Fe+2]` [FeSO4] yielded a Relative activity of 53.2.

The values are drawn from patent US4438201A, “Amidohydrolase having ability to depantothenylate an antibiotic” (Sanraku-Ocean Co., Ltd., priority 1981, dated 1984).
